Target: interaction of human SOS1 (SOS1) with human K-RasG12C (Homo sapiens (Human), UniProt Q07889)
Experiment: Biochemical assay: hK-RasG12C interaction assay with hSOS1 (HTRF)
Format: binding
Details: GST-hK-RasG12C with His-hSOS1, 60 min incubation at 20° C., mean, read-out: K-RasG12C - SOS interaction assay IC50 (mean)
Summary of the method: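 Compounds, duplicates at 11 concentrations from 0.073 nM to 20 µM, were preincubated 2 min with 10 nM GST-hK-RasG12C, then 20 nM His-hSOS1 was added, all at 20 °C. After 60 min, 665/620 nm HTRF ratio normalized to DMSO and SOS1-free controls; IC50 by 4-parameter fit.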

Chain of interaction of human SOS1 (SOS1) with human K-RasG12C (Q07889 564-1049 limits assumed): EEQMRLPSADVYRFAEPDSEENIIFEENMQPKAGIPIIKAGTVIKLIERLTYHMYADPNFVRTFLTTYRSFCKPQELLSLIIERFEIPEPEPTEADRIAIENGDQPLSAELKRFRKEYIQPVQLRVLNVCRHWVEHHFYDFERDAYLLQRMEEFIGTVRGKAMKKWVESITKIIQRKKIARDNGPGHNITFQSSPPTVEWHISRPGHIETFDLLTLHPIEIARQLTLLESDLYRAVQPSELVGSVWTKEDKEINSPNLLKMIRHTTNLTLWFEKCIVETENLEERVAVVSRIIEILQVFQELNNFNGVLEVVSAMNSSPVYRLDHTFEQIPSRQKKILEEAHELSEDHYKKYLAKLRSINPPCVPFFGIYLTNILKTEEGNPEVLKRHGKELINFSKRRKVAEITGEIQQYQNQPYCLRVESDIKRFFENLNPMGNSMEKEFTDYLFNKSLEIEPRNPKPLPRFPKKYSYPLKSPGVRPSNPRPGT

Structure (SMILES) | IC50
Cc1nc(N[C@H](C)c2cccc(C(F)(F)C(C)O)c2F)c2cc(P(C)(=O)C(C)C)ncc2n1 (single isomer, unassigned) [Example 81, (2R*)-1,1-difluoro-1-{2-fluoro-3-[(1R)-1-({2-methyl-6-[methyl(propan-2-yl)phosphoryl]pyrido[3,4-d]pyrimidin-4-yl}amino)ethyl]phenyl}propan-2-ol] | 10.2 nM
Cc1nc(N[C@H](C)c2cccc(C(F)(F)F)c2C)c2cc(P3(=O)CCN(C(=O)C4CC(F)(F)C4)CC3)ncc2n1 [Example 170, 1-(3,3-difluorocyclobutane-1-carbonyl)-4-[2-methyl-4-({(1R)-1-[2-methyl-3-(trifluoromethyl)phenyl]ethyl}amino)pyrido[3,4-d]pyrimidin-6-yl]-1,4lambda^5-azaphosphinan-4-one] | 11.3 nM
Cc1nc(N[C@H](C)c2cccc(C(F)(F)F)c2C)c2cc(P3(=O)CCN(C(=O)c4cnn(C)c4)CC3)ncc2n1 [Example 175, 4-[2-methyl-4-{{(1R)-1-[2-methyl-3-(trifluoromethyl)phenyl]ethyl}amino)pyrido[3,4-d]pyrimidin-6-yl]-1-(1-methyl-1H-pyrazole-4-carbonyl)-1,4lambda^5-azaphosphinan-4-one] | 9.07 nM
Cc1nc(N[C@H](C)c2cccc(C(F)F)c2F)c2cc(P3(=O)CCN(C(=O)C4(C#N)CC4)CC3)ncc2n1 [Example 152, 1-{4-[4-{{(1R)-1-[3-(difluoromethyl)-2-fluorophenyl]ethyl}amino)-2-methylpyrido[3,4-d]pyrimidin-6-yl]-4-oxo-1,4lambda5-azaphosphinane-1-carbonyl}cyclopropane-1-carbonitrile] | 12.7 nM
Cc1nc(N[C@H](C)c2cccc(C(F)(F)C(C)O)c2F)c2cc(P(C)(=O)C(C)C)ncc2n1 (single isomer, unassigned) [Example 80, (2R*)-1,1-difluoro-1-{2-fluoro-3-[(1R)-1-({2-methyl-6-[methyl(propan-2-yl)phosphoryl]pyrido[3,4-d]pyrimidin-4-yl}amino)ethyl]phenyl}propan-2-ol] | 5.88 nM
Cc1nc(N[C@H](C)c2cccc(C(F)(F)C(C)O)c2F)c2cc(P(C)(C)=O)ncc2n1 (stereo in doubt) [Example 86, (2R*)-1-{3-[(1R)-1-{[6-(dimethylphosphoryl)-2-methylpyrido[3,4-d]pyrimidin-4-yl]amino}ethyl]-2-fluorophenyl}-1,1-difluoropropan-2-ol] | 36.6 nM
CC(=O)N1CCP(=O)(c2cc3c(N[C@H](C)c4cccc(C(F)(F)F)c4C)nc(C(F)(F)F)nc3cn2)CC1 [Example 194] | 12.1 nM
Cc1nc(N[C@H](C)c2cccc(C(F)(F)F)c2C)c2cc(P3(=O)CCCC3)c(C)nc2n1 [Example 100, 1-[2,7-dimethyl-4-{{(1R)-1-[2-methyl-3-(trifluoromethyl)phenyl]ethyl}amino)pyrido[2,3-d]pyrimidin-6-yl]-1lambda^5-phospholan-1-one] | 4.89 nM
Cc1nc(N[C@H](C)c2cccc(C(F)(F)CNS(C)(=O)=O)c2F)c2cc(P3(=O)CCN(C(=O)C4CC4)CC3)ncc2n1 [Example 179, N-(2-{3-[(1R)-1-({6-[1-(cyclopropanecarbonyl)-4-oxo-1,4lambda^5-azaphosphinan-4-yl]-2-methylpyrido[3,4-d]pyrimidin-4-yl}amino)ethyl]-2-fluorophenyl}-2,2-difluoroethyl)methanesulfonamide] | 3.68 nM
CO[C@@H](C)C(=O)N1CCP(=O)(c2cc3c(N[C@H](C)c4cccc(C(F)(F)F)c4C)nc(C)nc3cn2)CC1 [Example 176, 1-[(2S)-2-methoxypropanoyl]-4-[2-methyl-4-{{(1R)-1-[2-methyl-3-(trifluoromethyl)phenyl]ethyl}amino)pyrido[3,4-d]pyrimidin-6-yl]-1,4lambda^5-azaphosphinan-4-one] | 6.82 nM
Cc1nc(N[C@H](C)c2cccc(C(F)(F)[C@@H](C)O)c2F)c2cc(P(C)(C)=O)ncc2n1 (relative stereo) [Example 113, (2R*)-1-{3-[(1R)-1-{[6-(dimethylphosphoryl)-2-methylpyrido[3,4-d]pyrimidin-4-yl]amino}ethyl]-2-fluorophenyl}-1,1-difluoropropan-2-ol] | 7.85 nM
Cc1nc(N[C@H](C)c2cccc(C(F)(F)F)c2C)c2cc(P3(=O)CCN(C(=O)OC(C)(C)C)CC3)nc(C)c2n1 [Example 91, tert-butyl 4-[2,8-dimethyl-4-({(1R)-1-[2-methyl-3-(trifluoromethyl)phenyl]ethyl}amino)pyrido[3,4-d]pyrimidin-6-yl]-4-oxo-1,4lambda^5-azaphosphinane-1-carboxylate] | 286 nM
CC(=O)N1CCP(=O)(c2cc3c(N[C@H](C)c4cccc(C(F)(F)F)c4C)nc(C)nc3nc2C)CC1 [Example 145, 1-acetyl-4-[2,7-dimethyl-4-({(1R)-1-[2-methyl-3-(trifluoromethyl)phenyl]ethyl}amino)pyrido[2,3-d]pyrimidin-6-yl]-1,4lambda^5-azaphosphinan-4-one] | 4.35 nM
COC(C)(C)C(F)(F)c1cccc([C@@H](C)Nc2nc(C)nc3cnc(P4(=O)CCCC4)cc23)c1F [Example 122, 1-[4-({(1R)-1-[3-(1,1-difluoro-2-methoxy-2-methylpropyl)-2-fluorophenyl]ethyl}amino)-2-methylpyrido[3,4-d]pyrimidin-6-yl]-1lambda^5-phospholan-1-one] | 62.6 nM
COCc1nc(P2(=O)CCN(C(C)=O)CC2)cc2c(N[C@H](C)c3cccc(C(F)(F)F)c3C)nc(C)nc12 [Example 37, 1-acetyl-4-[8-(methoxymethyl)-2-methyl-4-({(1R)-1-[2-methyl-3-(trifluoromethyl)phenyl]ethyl}amino)pyrido[3,4-d]pyrimidin-6-yl]-1,4lambda^5-azaphosphinan-4-one] | 9.69 nM
Cc1nc(N[C@H](C)c2cccc(C(F)(F)C(C)O)c2F)c2cc(P(C)(=O)C(C)C)ncc2n1 (single isomer, unassigned) [Example 83, (2R*)-1,1-difluoro-1-{2-fluoro-3-[(1R)-1-({2-methyl-6-[methyl(propan-2-yl)phosphoryl]pyrido[3,4-d]pyrimidin-4-yl}amino)ethyl]phenyl}propan-2-ol] | 31 nM
Cc1nc(N[C@H](C)c2cccc(C(F)(F)C(C)(C)O)c2F)c2cc(P(=O)(C(C)C)C(C)C)ncc2n1 [Example 12, 1-{3-[(1R)-1-({6-[di(propan-2-yl)phosphoryl]-2-methylpyrido[3,4-d]pyrimidin-4-yl}amino)ethyl]-2-fluorophenyl}-1,1-difluoro-2-methylpropan-2-ol] | 59.4 nM
CC(=O)N1CCP(=O)(c2cc3c(N[C@H](C)c4cccc(C(F)(F)F)c4C)nc(C)nc3c(C)n2)CC1 [Example 146, (R)-1-(4-(2,8-dimethyl-4-((1-(2-methyl-3-(trifluoromethyl)phenyl)ethyl)amino)pyrido[3,4-d]pyrimidin-6-yl)-4-oxido-1,4-azaphosphinan-1-yl)ethan-1-one] | 81 nM
Cc1nc(N[C@H](C)c2cccc(C(F)(F)F)c2C)c2cc(P3(=O)CCN(C(=O)NC4CC4)CC3)ncc2n1 [Example 184] | 5.62 nM
Cc1nc(N[C@H](C)c2cccc(C(F)F)c2F)c2cc(P(C)(=O)C(C)C)ncc2n1 (stereo partly drawn) [Example 114, N-{(1R)-1-[3-(difluoromethyl)-2-fluorophenyl]ethyl}-2-methyl-6-[methyl(propan-2-yl)phosphoryl]pyrido[3,4-d]pyrimidin-4-amine] | 66.5 nM
Cc1nc(NC(C)c2ccnc(C(F)(F)F)c2)c2cc(P(C)(C)=O)ncc2n1 (single isomer, unassigned) [Example 25, 6-(dimethylphosphoryl)-2-methyl-N-{1-[2-(trifluoromethyl)pyridin-4-yl]ethyl}pyrido[3,4-d]pyrimidin-4-amine] | 4850 nM
Cc1nc(N[C@H](C)c2cccc(C(F)(F)[C@H](O)C(C)(C)C)c2F)c2cc(P(C)(C)=O)ncc2n1 (relative stereo) [Example 137, (2R*)-1-{3-[(1R)-1-{[6-(dimethylphosphoryl)-2-methylpyrido[3,4-d]pyrimidin-4-yl]amino}ethyl]-2-fluorophenyl}-1,1-difluoro-3,3-dimethylbutan-2-ol] | 4.04 nM
Cc1nc(N[C@H](C)c2cccc(C(F)(F)C(C)(C)O)c2F)c2cc(P3(=O)CCCC3)cnc2n1 [Example 16, 1-[4-({(1R)-1-[3-(1,1-difluoro-2-hydroxy-2-methylpropyl)-2-fluorophenyl]ethyl}amino)-2-methylpyrido[2,3-d]pyrimidin-6-yl]-1lambda^5-phospholan-1-one] | 10.6 nM
CCC(O)C(F)(F)c1cccc([C@@H](C)Nc2nc(C)nc3cnc(P(C)(C)=O)cc23)c1F (single isomer, unassigned) [Example 65, (2R*)-1-{3-[(1R)-1-{[6-(dimethylphosphoryl)-2-methylpyrido[3,4-d]pyrimidin-4-yl]amino}ethyl]-2-fluorophenyl}-1,1-difluorobutan-2-ol] | 10.5 nM
Cc1nc(N[C@H](C)c2cccc(C(F)(F)C(C)(C)O)c2F)c2cc(P(C)(=O)C(C)C)ncc2n1 (single isomer, unassigned) [Example 71] | 35.4 nM
CCP(C)(=O)c1cc2c(N[C@H](C)c3cccc(C(F)(F)C(C)O)c3F)nc(C)nc2cn1 (single isomer, unassigned) [Example 76, (2R*)-1-{3-[(1R)-1-({6-[ethyl(methyl)phosphoryl]-2-methylpyrido[3,4-d]pyrimidin-4-yl}amino)ethyl]-2-fluorophenyl}-1,1-difluoropropan-2-ol] | 21.3 nM
Cc1nc(N[C@H](C)c2cccc(C(F)(F)CO)c2F)c2cc(P(C)(C)=O)ccc2n1 [Example 33, 2-{3-[(1R)-1-{[6-(dimethylphosphoryl)-2-methylquinazolin-4-yl]amino}ethyl]-2-fluorophenyl}-2,2-difluoroethan-1-ol] | 7.06 nM
CC(=O)N1CCP(=O)(c2cc3c(N[C@H](C)c4cccc(C(F)(F)CN(C)S(C)(=O)=O)c4F)nc(C)nc3cn2)CC1 [Example 200] | 3.95 nM

Source: patent US20240247015A1, “PHOSPHORUS DERIVATIVES AS NOVEL SOS1 INHIBITORS” (BAYER AKTIENGESELLSCHAFT, priority 2021, published 2024)
